Data reported in PMC10331583, “Control of fibrosis with enhanced safety via asymmetric inhibition of prolyl‐tRNA synthetase 1” (EMBO Molecular Medicine, 2023).
Values joined by “and” are separate entries in the source; they are usually repeats but may differ in a detail not shown here. Identical values can stand only once.

How the values were obtained:
[1] = Two‐week repeated‐dose toxicity study, HF versus DWN12088; type: in vivo, mice; settings: male, ICR (CrljOri: CD1), mouse, in vivo; oral once daily for 2 weeks, ICR mice
Description: (§1) To compare the in vivo toxicity of HF and DWN12088, all experiments were conducted following the international guidelines on the ethical use of experimental animals and approved by the Institutional Animal Care and Use Committee of KNOTUS (KNOTUS IACUC 21‐KE‐250 and KNOTUS IACUC 21‐KE‐359). ICR (CrljOri: CD1) mice (7‐week‐old, male, obtained from Koatech) were randomized (n = 6 for each group) and then orally administered with the indicated amounts of HF or DWN12088 once daily for 2 weeks. In the high‐dose group, the dose of DWN12088 was reduced from 120 mg/kg to 90 mg/kg from day 6. […] Body weight was measured at day 1, 2, 3, 4, 5, 8, 14, and 15.
(§2) After administering the drugs for 2 weeks, mice were fasted overnight and anesthetized with isoflurane. Blood samples were collected in EDTA‐coated tubes, and the following parameters were determined using a hematology analyzer (ADVIA 2120, SIEMENS, USA); red blood cell, platelet count, hematocrit, white blood cell, red cell distribution width, hemoglobin concentration distribution width, hemoglobin concentration, neutrophil, mean corpuscular volume, lymphocyte, mean cell hemoglobin, monocyte, mean cell hemoglobin concentration, eosinophil, mean platelet volume, basophil, reticulocytes, and large unstained cells.
(§3) For clinical chemistry, the remaining blood samples were incubated in a vacutainer tube with clot activator and then centrifuged to prepare serum. The following parameters were measured in the serum using a chemistry analyzer (7180, Hitachi, Japan) and electrolyte analyzer (AVL 9180, Roche, Switzerland); aspartate aminotransferase, albumin, alanine aminotransferase, albumin/globulin ratio, alkaline phosphatase, blood urea nitrogen, creatine phosphokinase, creatinine, total bilirubin, inorganic phosphorus, glucose, calcium, total cholesterol, sodium, triglyceride, potassium, total protein, and chloride.
(§4) After blood collection, blood was drained by incising the abdominal aorta and posterior vena cava, and all organs of the skin, brain, thoracic cavity, and abdominal cavity were observed. The relative weights of the lung, spleen, liver, heart, kidney, thymus, and testes were calculated by dividing the weight of each organ by the body weight. The experiments were conducted as non‐blind test.

ICR (CrljOri: CD1) mice = test: as above; type: in vivo
Description: as §1, §2, §3, §4

C57BL/6 mice [2] = test: Bleomycin‐induced lung fibrosis, therapeutic model 1 (compounds from a week after bleomycin); type: in vivo; settings: for BALF total cell count, average / BALF total cell count, single animal / Collagen contents, average / Collagen contents, single animal / Fibrotic area, average / Fibrotic area, single animal / SpO2, average / SpO2, single animal: BLM +; for collagen deposition, Masson's trichrome staining: lung tissue (Fig 1H and I); for fibrotic properties: model 1, drug administration from day 7
Description: To examine therapeutic efficacy of DWN12088, all experiments were conducted following the international guidelines on the ethical use of experimental animals and approved by the Institutional Animal Care and Use Committee of Daewoong Pharmaceutical (IACUC‐21‐014). C57BL/6 mice (7–8‐week‐old, male, obtained from Orient Bio) were anesthetized with Zoletil and injected intratracheally with 100 μl bleomycin (2 units/kg) (Merck, B8416) to induce lung fibrosis. A group of disease‐free mice (“untreated”) were injected with PBS instead of bleomycin. After a week, mice treated with bleomycin were randomized to (i) vehicle (saline), (ii) HF 0.05 mg/kg, (iii) HF 0.1 mg/kg, and (iv) DWN12088 10 mg/kg groups (n = 5 for each group) according to their body weight. The drugs were orally administered once daily for 2 weeks, and then the outcome was analyzed. For the experiments testing the effect of the compounds 2 weeks after bleomycin challenge, the experiment was approved by IACUC of Daewoong Pharmaceutical (IACUC‐22‐009). The experimental procedures were performed following the methods described previously, with the exception that the compounds were administered 2 weeks after bleomycin challenge. The experiments were conducted as non‐blind tests.
Mice were anesthetized with Zoletil for 10 min, and a portable mouse pulse oximeter (Veterinary Pulse Oximeter, Berry Electronic) was placed on each mouse's body. The measurements were continued to allow the recording of 3 min of a stable signal.
The collagen contents of lung tissues were measured using Sircol™ soluble collagen assay (Biocolor Ltd., S1000) following the manufacturer's instructions. Briefly, the right lung lobes were homogenized, and collagen was solubilized in 0.5 M acetic acid. Tissue extracts were incubated with Sirius red dye, and the absorbance was determined at 540 nm using a spectrophotometer. The amount of collagen was expressed relative to the wet weight of the tissues.
The lung tissues were fixed in paraformaldehyde and embedded in paraffin. The paraffin‐embedded blocks were sectioned at 4 μm and then mounted onto glass slides. After deparaffinization and rehydration, the slides were fixed with Bouin's solution (Sigma Aldrich, HT10132‐1L) for 1 h. Then, the slides were incubated with hematoxylin (Sigma Aldrich, MHS16‐500ML), Biebrich Scarlet (Sigma Aldrich, B‐6008) and acid fuchsin (Sigma Aldrich, A‐3908), phosphomolybdic (DAEJUNG, 6531‐4105) and phosphotungstic acid (DAEJUNG, 6539‐4105), aniline blue (DAEJUNG, 1087‐4125), and then 1% (v/v) acetic acid (DUKSAN, UN2789). After dehydration, the slides were mounted onto cover slips and scanned using slide scanner (3D HISTECH, Pannoramic MIDI). Fibrotic area of the images was quantified by using Image J plugin, color deconvolution 2.

C57BL/6 mice [3] = test: Bleomycin‐induced lung fibrosis, therapeutic model 2 (compounds from 2 weeks after bleomycin); type: in vivo; settings: model 2, drug administration from day 14
Description: To examine therapeutic efficacy of DWN12088, all experiments were conducted following the international guidelines on the ethical use of experimental animals and approved by the Institutional Animal Care and Use Committee of Daewoong Pharmaceutical (IACUC‐21‐014). C57BL/6 mice (7–8‐week‐old, male, obtained from Orient Bio) were anesthetized with Zoletil and injected intratracheally with 100 μl bleomycin (2 units/kg) (Merck, B8416) to induce lung fibrosis. A group of disease‐free mice (“untreated”) were injected with PBS instead of bleomycin. After a week, mice treated with bleomycin were randomized to (i) vehicle (saline), (ii) HF 0.05 mg/kg, (iii) HF 0.1 mg/kg, and (iv) DWN12088 10 mg/kg groups (n = 5 for each group) according to their body weight. The drugs were orally administered once daily for 2 weeks, and then the outcome was analyzed. For the experiments testing the effect of the compounds 2 weeks after bleomycin challenge, the experiment was approved by IACUC of Daewoong Pharmaceutical (IACUC‐22‐009). […]
The collagen contents of lung tissues were measured using Sircol™ soluble collagen assay (Biocolor Ltd., S1000) following the manufacturer's instructions. […] Tissue extracts were incubated with Sirius red dye, and the absorbance was determined at 540 nm using a spectrophotometer. […]

[4] = 120 ➔ 90 mg/kg (from day 6) oral once daily

O=C(CC1NCCCC1O)Cn1cnc2cc(Br)c(Cl)cc2c1=O (stereo not shown) [HF, Halofuginone, reference compound]
NOAEL at 2 weeks [1]: < 0.375 mg/kg | Mortality: Found dead (ICR (CrljOri: CD1) mice; 1.5 mg/kg oral once daily, 1 animal on day 5, 2 on day 6): Found dead: 3/6 (1 animal on day 5, 2 animals on day 6) Terminal sacrifice: 3/6 (on day 6) | Mortality: Terminal sacrifice (ICR (CrljOri: CD1) mice; 1.5 mg/kg oral once daily, on day 6): Found dead: 3/6 (1 animal on day 5, 2 animals on day 6) Terminal sacrifice: 3/6 (on day 6) | reduction in body weight (ICR (CrljOri: CD1) mice; mouse, in vivo): > 10% | SpO2 (C57BL/6 mice [2]; 0.05 mg/kg oral once a day, 2 weeks (Figs 1E and EV4G)): did not show an improvement in SpO2 | BALF total cell count, average (C57BL/6 mice [2]; 0.05 mg/kg): 10.46 x105 cells | BALF total cell count, single animal (C57BL/6 mice [2]; 0.05 mg/kg): 10 x105 cells and 12 x105 cells and 9.3 x105 cells and 11 x105 cells | Collagen contents, average (C57BL/6 mice [2]; 0.05 mg/kg): 308.0 μg/right lung | Collagen contents, single animal (C57BL/6 mice [2]; 0.05 mg/kg): 314 μg/right lung and 298 μg/right lung and 320 μg/right lung and 264 μg/right lung and 344 μg/right lung | Fibrotic area, average (C57BL/6 mice [2]; 0.05 mg/kg): 275.3 % of control | Fibrotic area, single animal (C57BL/6 mice [2]; 0.05 mg/kg): 303.9 % of control and 169.0 % of control and 380.1 % of control and 194.5 % of control and 329.1 % of control | SpO2, average (C57BL/6 mice [2]; 0.05 mg/kg): 71.2% | SpO2, single animal (C57BL/6 mice [2]; 0.05 mg/kg): 72% and 64% and 66% and 76% and 78% | BALF total cell count, average (C57BL/6 mice [2]; 0.1 mg/kg): 7.38 x105 cells | BALF total cell count, single animal (C57BL/6 mice [2]; 0.1 mg/kg): 7.2 x105 cells and 9 x105 cells and 5.1 x105 cells and 7.4 x105 cells and 8.2 x105 cells | Collagen contents, average (C57BL/6 mice [2]; 0.1 mg/kg): 231.8 μg/right lung | Collagen contents, single animal (C57BL/6 mice [2]; 0.1 mg/kg): 254 μg/right lung and 195 μg/right lung and 275 μg/right lung and 201 μg/right lung and 234 μg/right lung | Fibrotic area, average (C57BL/6 mice [2]; 0.1 mg/kg): 171.2 % of control | Fibrotic area, single animal (C57BL/6 mice [2]; 0.1 mg/kg): 180.4 % of control and 138.3 % of control and 115.6 % of control and 249.0 % of control and 172.5 % of control | SpO2, average (C57BL/6 mice [2]; 0.1 mg/kg): 80.0% | SpO2, single animal (C57BL/6 mice [2]; 0.1 mg/kg): 78% and 81% and 85% and 82% and 74% | collagen deposition, Masson's trichrome staining (C57BL/6 mice [2]): decreased collagen deposition in the interstitial spaces | fibrotic properties (C57BL/6 mice [2]): significantly reduced fibrotic properties | fibrotic properties (C57BL/6 mice [3]): less apparent

O[C@H]1CCCN[C@@H]1CCCn1cnc2c(Cl)c(Cl)ccc21 [DWN12088]
NOAEL at 2 weeks [1]: 60 mg/kg | Hematology ↓ (ICR (CrljOri: CD1) mice; 60 mg/kg oral once daily, 2 weeks): HGB, MCHC | Clinical chemistry ↑ (ICR (CrljOri: CD1) mice; [4]): AST, ALT, ALP, GLU, BUN, CRE, IP, K^+ | Clinical chemistry ↓ (ICR (CrljOri: CD1) mice; [4]): TP, TCHO | Clinical signs (ICR (CrljOri: CD1) mice; [4]): Inanimation, hypothermia | Hematology ↓ (ICR (CrljOri: CD1) mice; [4]): RBC, HGB, MCHC | Necropsy finding (ICR (CrljOri: CD1) mice; [4]): • Pale liver (1/6) • Thymus atrophy (3/6) • Pale and large kidney (1/6) • Dark red contents in the stomach (1/6) | Organ weight ↑ (ICR (CrljOri: CD1) mice; [4]): Kidney, liver | Organ weight ↓ (ICR (CrljOri: CD1) mice; [4]): Spleen, thymus | Mortality: Terminal sacrifice (ICR (CrljOri: CD1) mice; 120 ➔ 90 mg/kg (from day 6) oral once daily, days 2, 5, 6 and 12): Terminal sacrifice: 4/6 (Each animal on days 2, 5, 6, and 12) | reduction in body weight (ICR (CrljOri: CD1) mice; all the tested doses): did not show weight loss | NOAEL of DWN12088 relative to that of HF (ICR (CrljOri: CD1) mice; male, ICR (CrljOri: CD1), mouse, in vivo, 2 weeks): more than 160 times | efficacy (SpO2, BALF total cell count, collagen contents) (C57BL/6 mice [2]; 10 mg/kg oral once a day, 2 weeks, versus nintedanib 60 mg/kg and pirfenidone 200 mg/kg (Fig EV4D–F)): comparable with nintedanib and pirfenidone | BALF total cell count, average (C57BL/6 mice [2]; 10 mg/kg): 8.46 x105 cells | BALF total cell count, single animal (C57BL/6 mice [2]; 10 mg/kg): 9.8 x105 cells and 8.9 x105 cells and 6.4 x105 cells and 7.5 x105 cells and 9.7 x105 cells | Collagen contents, average (C57BL/6 mice [2]; 10 mg/kg): 213.8 μg/right lung | Collagen contents, single animal (C57BL/6 mice [2]; 10 mg/kg): 175 μg/right lung and 275 μg/right lung and 198 μg/right lung and 165 μg/right lung and 256 μg/right lung | Fibrotic area, average (C57BL/6 mice [2]; 10 mg/kg): 173.8 % of control | Fibrotic area, single animal (C57BL/6 mice [2]; 10 mg/kg): 230.8 % of control and 181.2 % of control and 123.5 % of control and 151.5 % of control and 182.0 % of control | SpO2, average (C57BL/6 mice [2]; 10 mg/kg): 81.0% | SpO2, single animal (C57BL/6 mice [2]; 10 mg/kg): 87% and 81% and 88% and 72% and 77% | collagen deposition, Masson's trichrome staining (C57BL/6 mice [2]): decreased collagen deposition in the interstitial spaces | fibrotic properties (C57BL/6 mice [2]): significantly reduced fibrotic properties | in vivo effective dose of DWN12088 relative to that of HF (C57BL/6 mice [2]; mouse, in vivo): about 100 times | fibrotic properties (C57BL/6 mice [3]): less apparent
